Results published in ChEMBL document CHEMBL1255467, “Comparative in vitro antimicrobial activities of torezolid (TR-700), the active moiety of a new oxazolidinone, torezolid phosphate (TR-701), determination of tentative disk diffusion interpretive criteria, and quality control ranges” (2010).
Values after ≈ are worked out from the molar mass of the structure shown.

What was measured:
[1] = test system: Enterococcus faecium; assay: Antimicrobial activity against vancomycin-resistant Enterococcus faecium by broth dilution method; format: functional
[2] = test system: Staphylococcus aureus; assay: Antimicrobial activity against vancomycin-nonsusceptible Staphylococcus aureus by broth dilution method; format: functional
[3] = test system: Streptococcus sp; assay: Antimicrobial activity against streptococcal sp. by broth dilution method
[4] = test system: Streptococcus viridans; assay: Antimicrobial activity against Streptococcus viridans by broth dilution method; format: functional
[5] = test system: Staphylococcus aureus; assay: Antimicrobial activity against methicillin-resistant Staphylococcus aureus by broth dilution method; format: functional
[6] = test system: Haemophilus influenzae; assay: Antimicrobial activity against beta-lactamase positive Haemophilus influenzae by broth dilution method; format: functional
[7] = test system: Streptococcus pneumoniae; assay: Antimicrobial activity against Streptococcus pneumoniae by broth dilution method; format: functional
[8] = test system: Staphylococcus aureus; assay: Antimicrobial activity against methicillin-susceptible Staphylococcus aureus by broth dilution method; format: functional
[9] = test system: Streptococcus pneumoniae; assay: Antimicrobial activity against penicillin-resistant Streptococcus pneumoniae by broth dilution method; format: functional
[10] = test system: Haemophilus influenzae; assay: Antimicrobial activity against beta-lactamase negative Haemophilus influenzae by broth dilution method; format: functional
[11] = test system: Streptococcus pneumoniae; assay: Antimicrobial activity against penicillin-susceptible Streptococcus pneumoniae by broth dilution method; format: functional
[12] = test system: Staphylococcus aureus; assay: Antimicrobial activity against linezolid-resistant Staphylococcus aureus by broth dilution method; format: functional
[13] = test system: Enterococcus faecalis; assay: Antimicrobial activity against vancomycin-resistant Enterococcus faecalis by broth dilution method; format: functional
[14] = test system: Enterococcus sp.; assay: Antimicrobial activity against Enterococcus by broth dilution method; format: functional
[15] = test system: Moraxella catarrhalis; assay: Antimicrobial activity against Moraxella catarrhalis by broth dilution method; format: functional
[16] = test system: Staphylococcus sp.; assay: Antimicrobial activity against Staphylococcus sp. by broth dilution method; format: functional
[17] = test system: Staphylococcus aureus; assay: Antimicrobial activity against Staphylococcus aureus by broth dilution method; format: functional
[18] = test system: Corynebacterium jeikeium; assay: Antimicrobial activity against Corynebacterium jeikeium by broth dilution method; format: functional
[19] = test system: Staphylococcus sp.; assay: Antimicrobial activity against methicillin-susceptible coagulase-negative Staphylococcus by broth dilution method; format: functional
[20] = test system: Listeria monocytogenes; assay: Antimicrobial activity against Listeria monocytogenes by broth dilution method; format: functional
[21] = test system: Streptococcus pneumoniae; assay: Antimicrobial activity against penicillin-intermediate Streptococcus pneumoniae by broth dilution method; format: functional
[22] = test system: Enterococcus faecalis; assay: Antimicrobial activity against vancomycin-susceptible Enterococcus faecalis by broth dilution method; format: functional
[23] = test system: Haemophilus influenzae; assay: Antimicrobial activity against ampicillin-nonsusceptible beta-lactamase negative Haemophilus influenzae by broth dilution method; format: functional
[24] = test system: Haemophilus influenzae; assay: Antimicrobial activity against Haemophilus influenzae by broth dilution method; format: functional
[25] = test system: Staphylococcus sp.; assay: Antimicrobial activity against methicillin-resistant coagulase-negative Staphylococcus by broth dilution method; format: functional
[26] = test system: Enterococcus faecium; assay: Antimicrobial activity against vancomycin-susceptible Enterococcus faecium by broth dilution method; format: functional

Molecule `Cn1nnc(-c2ccc(-c3ccc(N4C[C@H](CO)OC4=O)cc3F)cn2)n1` [TEDIZOLID] has an MBC [1] of 1 µg/mL (≈ 2.7 µM), an MIC50 [1] of 0.5 µg/mL (≈ 1.35 µM) and an MIC90 [1] of 0.5 µg/mL (≈ 1.35 µM). It also gave an MBC50 [2] of 0.5 µg/mL (≈ 1.35 µM), an MBC90 [2] of 1 µg/mL (≈ 2.7 µM) and an MBC ([2]; Staphylococcus aureus) of 0.5 µg/mL (≈ 1.35 µM). It also gave an MIC50 ([2]; Staphylococcus aureus) of 0.25 µg/mL (≈ 0.675 µM), an MIC90 ([2]; Staphylococcus aureus) of 1 µg/mL (≈ 2.7 µM) and an MBC50 [3] of 1 µg/mL (≈ 2.7 µM). It also gave an MBC90 [3] of 16 µg/mL (≈ 43.2 µM), an MBC ([3]; Streptococcus sp.) of 0.5 µg/mL (≈ 1.35 µM) and an MIC50 ([3]; Streptococcus sp.) of 0.25 µg/mL (≈ 0.675 µM). The MIC90 ([3]; Streptococcus sp.) was 0.25 µg/mL (≈ 0.675 µM), the MIC50 [4] was 0.25 µg/mL (≈ 0.675 µM) and the MIC90 [4] was 0.25 µg/mL (≈ 0.675 µM). It also gave an MBC50 [5] of 2 µg/mL (≈ 5.4 µM), an MIC50 ([5]; Staphylococcus aureus) of 0.5 µg/mL (≈ 1.35 µM) and an MIC90 ([5]; Staphylococcus aureus) of 1 µg/mL (≈ 2.7 µM). It also gave an MBC50 [6] of over 32 µg/mL, an MIC90 [6] of over 32 µg/mL and an MBC ([6]; Haemophilus influenzae) of over 32 µg/mL. For the same molecule, the MIC50 ([6]; Haemophilus influenzae) was 8 µg/mL (≈ 21.6 µM), the MIC90 ([6]; Haemophilus influenzae, read-out: MIC90) was 32 µg/mL (≈ 86.4 µM) and the MBC50 [7] was 1 µg/mL (≈ 2.7 µM). It also gave an MBC90 [7] of 2 µg/mL (≈ 5.4 µM), an MBC ([7]; Streptococcus pneumoniae) of 0.5 µg/mL (≈ 1.35 µM) and an MIC50 ([7]; Streptococcus pneumoniae) of 0.25 µg/mL (≈ 0.675 µM). For the same molecule, the MIC90 ([7]; Streptococcus pneumoniae) was 0.25 µg/mL (≈ 0.675 µM), the MBC50 [8] was 16 µg/mL (≈ 43.2 µM) and the MBC90 [8] was 32 µg/mL (≈ 86.4 µM). It also gave an MBC ([8]; Staphylococcus aureus) of 1 µg/mL (≈ 2.7 µM), an MIC ([8]; Staphylococcus aureus) of 0.25 µg/mL (≈ 0.675 µM) and an MIC50 ([8]; Staphylococcus aureus) of 0.25 µg/mL (≈ 0.675 µM). The MIC90 ([8]; Staphylococcus aureus) was 0.5 µg/mL (≈ 1.35 µM), the MBC [9] was 1 µg/mL (≈ 2.7 µM) and the MIC50 [9] was 0.25 µg/mL (≈ 0.675 µM). It also gave an MIC90 [9] of 0.25 µg/mL (≈ 0.675 µM), an MBC50 [10] of over 32 µg/mL and an MBC90 [10] of over 32 µg/mL. It also gave an MBC ([10]; Haemophilus influenzae) of over 16 µg/mL, an MIC50 ([10]; Haemophilus influenzae) of 8 µg/mL (≈ 21.6 µM) and an MIC90 ([10]; Haemophilus influenzae) of 16 µg/mL (≈ 43.2 µM). For the same molecule, the MBC50 [11] was 1 µg/mL (≈ 2.7 µM), the MBC90 [11] was 4 µg/mL (≈ 10.8 µM) and the MBC ([11]; Streptococcus pneumoniae) was 0.5 µg/mL (≈ 1.35 µM). The MIC50 ([11]; Streptococcus pneumoniae) was 0.25 µg/mL (≈ 0.675 µM), the MIC90 ([11]; Streptococcus pneumoniae) was 0.25 µg/mL (≈ 0.675 µM) and the MBC [12] was over 16 µg/mL. It also gave an MIC50 [12] of 4 µg/mL (≈ 10.8 µM), an MIC90 [12] of 8 µg/mL (≈ 21.6 µM) and an MBC [13] of over 16 µg/mL. It also gave an MIC50 [13] of 0.5 µg/mL (≈ 1.35 µM), an MIC90 [13] of 0.5 µg/mL (≈ 1.35 µM) and an MBC50 [14] of 32 µg/mL (≈ 86.4 µM). It also gave an MBC90 [14] of 32 µg/mL (≈ 86.4 µM), an MBC ([14]; Enterococcus sp.) of over 1 µg/mL and an MIC50 ([14]; Enterococcus sp.) of 0.5 µg/mL (≈ 1.35 µM). It also gave an MIC90 ([14]; Enterococcus sp.) of 0.5 µg/mL (≈ 1.35 µM), an MIC50 [15] of 4 µg/mL (≈ 10.8 µM) and an MIC90 [15] of 4 µg/mL (≈ 10.8 µM). The MBC50 [16] was 8 µg/mL (≈ 21.6 µM), the MBC90 [16] was 32 µg/mL (≈ 86.4 µM) and the MBC ([16]; Staphylococcus sp.) was over 0.5 µg/mL. It also gave an MIC50 ([16]; Staphylococcus sp.) of 0.25 µg/mL (≈ 0.675 µM), an MIC90 ([16]; Staphylococcus sp.) of 0.5 µg/mL (≈ 1.35 µM) and an MBC50 [17] of 4 µg/mL (≈ 10.8 µM). It also gave an MBC90 [17] of 16 µg/mL (≈ 43.2 µM), an MBC ([17]; Staphylococcus aureus) of over 0.5 µg/mL and an MIC50 ([17]; Staphylococcus aureus) of 0.5 µg/mL (≈ 1.35 µM). The MIC90 ([17]; Staphylococcus aureus) was 0.5 µg/mL (≈ 1.35 µM), the MIC [18] was 0.25 µg/mL (≈ 0.675 µM) and the MIC50 [18] was 0.25 µg/mL (≈ 0.675 µM). It also gave an MIC90 [18] of 0.5 µg/mL (≈ 1.35 µM), an MBC50 [19] of 16 µg/mL (≈ 43.2 µM) and an MBC90 [19] of 32 µg/mL (≈ 86.4 µM). The MBC ([19]; Staphylococcus sp.) was over 2 µg/mL, the MIC50 ([19]; Staphylococcus sp.) was 0.25 µg/mL (≈ 0.675 µM) and the MIC90 ([19]; Staphylococcus sp.) was 0.5 µg/mL (≈ 1.35 µM). The MIC [20] was 0.25 µg/mL (≈ 0.675 µM), the MIC50 [20] was 0.25 µg/mL (≈ 0.675 µM) and the MIC90 [20] was 0.25 µg/mL (≈ 0.675 µM). For the same molecule, the MBC50 [21] was 1 µg/mL (≈ 2.7 µM), the MBC90 [21] was 1 µg/mL (≈ 2.7 µM) and the MBC ([21]; Streptococcus pneumoniae) was 0.5 µg/mL (≈ 1.35 µM). The MIC50 ([21]; Streptococcus pneumoniae) was 0.25 µg/mL (≈ 0.675 µM), the MIC90 ([21]; Streptococcus pneumoniae) was 0.5 µg/mL (≈ 1.35 µM) and the MBC50 [22] was 32 µg/mL (≈ 86.4 µM). It also gave an MBC90 [22] of 32 µg/mL (≈ 86.4 µM), an MBC ([22]; Enterococcus faecalis) of 16 µg/mL (≈ 43.2 µM) and an MIC50 ([22]; Enterococcus faecalis) of 0.5 µg/mL (≈ 1.35 µM). It also gave an MIC90 ([22]; Enterococcus faecalis) of 0.5 µg/mL (≈ 1.35 µM), an MBC50 [23] of over 32 µg/mL and an MBC90 [23] of over 32 µg/mL. For the same molecule, the MBC ([23]; Haemophilus influenzae) was over 8 µg/mL, the MIC50 ([23]; Haemophilus influenzae) was 8 µg/mL (≈ 21.6 µM) and the MIC90 ([23]; Haemophilus influenzae) was 16 µg/mL (≈ 43.2 µM). It also gave an MBC50 [24] of over 32 µg/mL, an MBC90 [24] of over 32 µg/mL and an MBC ([24]; Haemophilus influenzae) of over 8 µg/mL. For the same molecule, the MIC50 ([24]; Haemophilus influenzae) was 8 µg/mL (≈ 21.6 µM), the MIC90 ([24]; Haemophilus influenzae) was 16 µg/mL (≈ 43.2 µM) and the MIC50 [25] was 0.25 µg/mL (≈ 0.675 µM). For the same molecule, the MIC90 [25] was 0.5 µg/mL (≈ 1.35 µM), the MBC50 [26] was 32 µg/mL (≈ 86.4 µM) and the MBC90 [26] was 32 µg/mL (≈ 86.4 µM). For the same molecule, the MBC ([26]; Enterococcus faecium) was 16 µg/mL (≈ 43.2 µM), the MIC50 ([26]; Enterococcus faecium) was 0.5 µg/mL (≈ 1.35 µM) and the MIC90 ([26]; Enterococcus faecium) was 0.5 µg/mL (≈ 1.35 µM).
